Results: patent US20230248626A1, “Compositions Comprising (Bio)-Alkanediols” (Symrise AG, priority 0001, published 2023)

Legend:
[1] = Sensory evaluation on the backside of the hand (spreading, fatty/greasy skin feel, absorption), untrained panellists; conditions: for Absorption/remaining residue with alkanediol: scale 1 to 5
Description: For evaluating the sensory behaviour, liquid lipophilic components specified in the following table were blended with 1,2-heptanediol or 2,3-heptanediol or a mixture of 1,2-heptanediol and 2,3-heptanediol or 1,2-octanediol or 2,3-octanediol or a mixture of 1,2-octanediol and 2,3-octanediol (formulation) in a ratio of 85:15 and assessed by untrained panellists in comparison to the liquid lipophilic component without addition of the specified alkanediols (placebo).
The test procedure was carried as follows: For evaluating the sensory behaviour of 1,2-alkanediols and/or 2,3-alkanediols in combination with different liquid lipophilic components, oil components specified in the following table were blended with a 1,2-alkanediol or a 2,3-alkanediol or a mixture including a 1,2-alkanediol and a 2,3-alkanediol in a ratio as specified in Table 53 and assessed by untrained panellists in comparison to the liquid lipophilic component without addition of the 1,2-alkanediol or 2,3-alkanediol or the mixture including a 1,2-alkanediol and 2,3-alkanediol (placebo).
Test Procedure: • Hands were pre-washed with liquid soap by following a defined procedure; 30 μl of corresponding sample was applied on the backside of each hand (randomized); • After 30 s the spreading behaviour of the respective formulation on skin was evaluated versus the respective oil component without 1,2-heptanediol on a scale from 1 to 5 (1=low spreading; 5=high spreading); • The samples were distributed with the fingertips of middle and forefinger with 2×5 cycles; • After 2 minutes, the fatty/greasy skin feel was evaluated on a scale from 1 to 5 (1=low fatty/greasy skin feel; 5=high fatty/greasy skin feel); • Furthermore the applicants were asked to assess the absorption, i.e. the impression of amount of remaining residue on the skin on a scale from 1 to 5 (1=low absorption; 5=high absorption).

[2] = test system: human sebaceous glands; test: Sebum production of micro-dissected, cultured human sebaceous glands (lipids/proteins after six days); type: cell-based; set-up: sebum reduction: concentration or dose not given beside the values; conditions: compared to untreated control; six days; single donor (FIG. 4)
Description: Additional tests were performed with human sebaceous glands in order to verify the modulatory activity of different 1,2-alkanediols and 2,3-alkanediols on sebum secretion. Several microbial species on the skin are lipid dependent and feed on the human sebum (e.g. Corynebacterium, Propionibacterium). Accordingly, sebum reduction can indirectly support the reduction of microorganisms on the skin and in this way also indirectly support e.g. dandruff or acne reduction.
For these experiments sebaceous glands had been micro-dissected and cultured with medium. The medium without any supplement served as untreated control. Medium with 5 μM Capsaicin served as positive control. Additionally, culture medium was supplemented with different concentrations of alkanediols. After six days the sebaceous glands were collected and lipids and proteins quantified. The total lipid amount being representative of sebum production was obtained by normalizing the quantified lipids upon the quantified proteins (i.e. mg of lipids/mg of proteins).

[3] = test system: reactive oxygen species (ROS) on ex vivo skin; test: DCF assay, ROS score on ex vivo skin, aqueous/alcoholic (ethanolic) test system; type: cell-based; conditions: vehicle (EtOH/H2O) plus alkanediol only
Description: A dichlorofluorescein test (DCF) assay was performed in order to determine the amount of reactive oxygen species (ROS) on ex vivo skin treated with different test samples in a lipophilic or an aqueous/alcoholic system as described below.
DCF assay—assay principle: Ex vivo skin was incubated with 2′,7′-dichlorodihydrofluorescein diacetate at 37° C., 5% CO2. After PBS washing, samples were exposed or not to cumene hydroperoxide. Immediately after exposure, ex vivo skin samples were frozen in liquid nitrogen and 5 μm cryostat sections were made and fixed with acetone to allow the visualisation of fluorescence generated by ROS in cells of the reconstructed skins. The resulting fluorescence was measured at EX/EM 504/524 nm. Green fluorescence was quantified in ex vivo skin using ImageJ software. The depth of immunostaining was measured as follows: green DCFH-DE positive cells were automatically detected using Histolab software and the distance between dermal epidermal junction and the deepest positive cells were measured in each condition. Means were compared using a student's test. […]
The image acquisition was performed by using Olympus BX51 microscope and Olympus DP70 camera. For each skin sample two skin sections have been taken and the related fluorescent images acquired and analyzed. Thus, for each test condition, 12 images have been acquired and analyzed (i.e. 12 data). […]

[4] = blend with Argan Oil vs without
[5] = blend with Avocado Oil vs without
[6] = blend with Cacao butter vs without
[7] = blend with Castor Oil vs without
[8] = blend with Coconut Oil vs without
[9] = blend with Grapeseed Oil vs without
[10] = blend with Helianthus Annuus (Sunflower) Seed Oil vs without
[11] = blend with Helianthus Annuus (Sunflower) Seed Oil
[12] = blend with Octocrylene (Neo Heliopan 303), vs without
[13] = blend with Octocrylene (Neo Heliopan 303)
[14] = blend with Olive Oil vs without

SMILES | Absorption/remaining residue Delta [1, 4] | Absorption/remaining residue with alkanediol ([1]; blend with Argan Oil) | Absorption/remaining residue Delta [1, 5] | Absorption/remaining residue with alkanediol ([1]; blend with Avocado Oil) | Absorption/remaining residue Delta [1, 6] | Absorption/remaining residue with alkanediol ([1]; blend with Cacao butter) | Absorption/remaining residue Delta [1, 7] | Absorption/remaining residue with alkanediol ([1]; blend with Castor Oil) | Absorption/remaining residue Delta [1, 8] | Absorption/remaining residue with alkanediol ([1]; blend with Coconut Oil) | Absorption/remaining residue Delta [1, 9] | Absorption/remaining residue with alkanediol ([1]; blend with Grapeseed Oil) | Absorption/remaining residue Delta [1, 10] | Absorption/remaining residue with alkanediol [1, 11] | Absorption/remaining residue Delta [1, 12] | Absorption/remaining residue with alkanediol [1, 13] | Absorption/remaining residue Delta [1, 14] | Absorption/remaining residue with alkanediol ([1]; blend with Olive Oil) | other results
CCCCCC(O)C(C)O (stereo not drawn) [2,3-octanediol] | 1.6 | 2.2 | 1.4 | 2.4 | 0.8 | 2.8 | 1.4 | 3 | 1.2 | 2.6 | 0.2 | 2.4 | 0.4 | 3.4 | 1.5 | 2.5 | 1.4 | 2.6 | –
CCCCC(O)C(C)O (stereo not drawn) [2,3-heptanediol] | 1.4 | 2.4 | 1.4 | 2.4 | 0.4 | 3.2 | 0.6 | 3.8 | 1 | 2.4 | 0.8 | 2.2 | 1 | 2.6 | 0.5 | 3.5 | 2 | 2 | Absorption/remaining residue Delta ([1]; blend with Caprylic Capric Triglyceride (neutral oil), rows r50-r56, vs without): 0.3; Absorption/remaining residue with alkanediol ([1]; blend with Caprylic Capric Triglyceride (neutral oil), rows r50-r56): 3; Absorption/remaining residue Delta ([1]; blend with Cetearyl Nonanoate, rows r199-r201, vs without): 1.0; Absorption/remaining residue with alkanediol ([1]; blend with Cetearyl Nonanoate, rows r199-r201): 3.8; sebum reduction [2]: 30%; antioxidative efficacy without antioxidant (in words) [3]: do not have an antioxidative efficacy
